Test results published in ChEMBL document CHEMBL4043219, “Development of sulfonamides incorporating phenylacrylamido functionalities as carbonic anhydrase isoforms I, II, IX and XII inhibitors” (Bioorg Med Chem, 2017).
Values belong to the molecule of their own block, whether it stands above or below them.

Assays:
[1] = target: Carbonic anhydrase 9 (Homo sapiens, UniProt Q16790)
Description: Inhibition of human recombinant carbonic anhydrase-9 preincubated for 10 mins by stopped-flow CO2 hydration assay

[2] = target: Carbonic anhydrase 12 (Homo sapiens, UniProt O43570); experiment: Inhibition of human recombinant carbonic anhydrase-12 preincubated for 10 mins by stopped-flow CO2 hydration assay
Chain of Carbonic anhydrase 12 (O43570 whole entry): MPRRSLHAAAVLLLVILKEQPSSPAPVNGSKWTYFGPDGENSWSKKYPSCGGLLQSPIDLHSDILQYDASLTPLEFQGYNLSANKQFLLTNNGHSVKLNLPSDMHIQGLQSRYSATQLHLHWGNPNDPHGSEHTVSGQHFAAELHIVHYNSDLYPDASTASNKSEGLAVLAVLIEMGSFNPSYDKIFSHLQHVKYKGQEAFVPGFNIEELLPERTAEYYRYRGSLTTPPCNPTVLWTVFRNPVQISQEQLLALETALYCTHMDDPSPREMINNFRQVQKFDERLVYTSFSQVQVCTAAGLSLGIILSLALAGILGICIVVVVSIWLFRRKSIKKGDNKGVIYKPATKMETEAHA

SMILES: NS(=O)(=O)c1ccc(NC(=O)/C=C/c2ccc(F)c(F)c2)cc1
Ki [1]: 151 nM

SMILES: CC(C)Oc1ccc(/C=C/C(=O)Nc2ccc(S(N)(=O)=O)cc2)cc1
Ki [1]: 20.3 nM

SMILES: NS(=O)(=O)c1ccc(NC(=O)/C=C/c2ccc(Cl)cc2)cc1
Ki [1]: 12.6 nM

SMILES: NS(=O)(=O)c1ccc(NC(=O)/C=C/c2cccc(C(F)(F)F)c2)cc1
Ki [1]: 11.6 nM

SMILES: NS(=O)(=O)c1ccc(NC(=O)/C=C/c2cc(Cl)cc(Cl)c2)cc1
Ki [1]: 229 nM

SMILES: COc1ccc(/C=C/C(=O)Nc2ccc(S(N)(=O)=O)cc2)c(OC)c1
Ki [1]: 9.6 nM

SMILES: COc1ccc(/C=C/C(=O)Nc2ccc(S(N)(=O)=O)cc2)c(F)c1
Ki [1]: 11.2 nM

SMILES: COc1cc(/C=C/C(=O)Nc2ccc(S(N)(=O)=O)cc2)cc(OC)c1OC
Ki [1]: 126 nM

Molecules with a lower Ki [1], results first:

Ki [1]: 9.3 nM
SMILES: COc1ccc(/C=C/C(=O)Nc2ccc(S(N)(=O)=O)cc2)cc1OC

Ki [1]: 4.9 nM
SMILES: NS(=O)(=O)c1ccc(NC(=O)/C=C/c2ccc(OC(F)(F)F)cc2)cc1

Ki [1]: 8 nM
SMILES: N#Cc1ccc(/C=C/C(=O)Nc2ccc(S(N)(=O)=O)cc2)cc1

Ki [1]: 2.4 nM
SMILES: NS(=O)(=O)c1ccc(NC(=O)/C=C/c2ccc(C(F)(F)F)cc2)cc1

Ki [1]: 1.8 nM
Ki [2]: 4.6 nM
SMILES: NS(=O)(=O)c1ccc(NC(=O)/C=C/c2ccccc2OC(F)F)cc1

Ki [1]: 5.3 nM
SMILES: COc1ccc(/C=C/C(=O)Nc2ccc(S(N)(=O)=O)cc2)cc1

Ki [1]: 2.4 nM
SMILES: NS(=O)(=O)c1ccc(NC(=O)/C=C/c2ccc(F)cc2)cc1

Ki [1]: 2 nM
SMILES: NS(=O)(=O)c1ccc(NC(=O)/C=C/c2cccc(F)c2)cc1
